Values joined by “and” are separate entries in the source; they are usually repeats but may differ in a detail not shown here. Equal values may be shown once. Read-outs that look alike come from different tables or passages of the source. Each block holds one compound with its values, some of them ahead of it.
Tests used:
[1] = test system: production of Leukotriene B4; assay: Rat ex vivo Leukotriene B4 inhibition (oral dosing, blood challenged with A23187); assay type: in vivo, Rats; details: two hours post dose
Protocol: The test method described below measures the ability of a compound when administered orally to rats to inhibit the production of Leukotriene B4 in their blood which is drawn and challenged.
Rats (CD, male, non-fasted, 250 g) are lightly anesthetized with carbon dioxide and an approximately 0.75 mL sample of whole blood is obtained via cardiac puncture. The sample is dispensed into 12 X 75 mm polypropylene tubes containing 8-10 µL of 10,000 units/mL heparin, mixed and then maintained on ice. The rats are allowed to recover approximately one hour then dosed orally with compound dissolved in PEG 400 at a 5 mL/Kg volume. Five (5) rats are utilized per group. Two (2) hours post dose the rats are again anesthetized with carbon dioxide and the blood sampled again via cardiac puncture.
Duplicate 200 µL portions of blood are added to 1.0 mL polypropylene tubes. A 10 µL portion of 1mM A23187 Calcium Ionophore in dimethyl sulfoxide/Tris buffer is added to each tube. The tubes are gently vortexed then incubated in a 37°C water bath for 30 minutes. The tubes are then centrifuged at 4000 rpm for 10 minutes. 50 µL portions of plasma are transferred to 1.0 mL tubes containing 200 µL of methanol. The tubes are vortexed then placed in the freezer overnight.
The tubes are removed from the freezer then centrifuged at 4000 rpm for 10 minutes. […] portions of the methanol/plasma supernatant and 10 µL methanol dilutions of LTB4 standard curve are transferred to 96 well v-bottom microtiter plates. The plates are vacuum dried at 40°C. A 40 µL portion of LTB4 radioimmunoassay buffer is added to each well. The plate is bath sonicated for 5 minutes then assayed according to the manufacturer's (Advanced Magnetics; Cambridge, MA) instructions. Percent inhibition values are obtained by comparing the level of LTB4 in the post-dose samples to the level in the pre-dose samples according to the equation below. % Inhibition =((LTB4 pre-dose) - (LTB4 post-dose))/((LTB4 pre-dose))X 100 [formula]

[2] = test system: production of Leukotriene C4 in mouse peritoneal macrophages; assay: In vitro mouse peritoneal macrophage Leukotriene C4 inhibition (zymosan-stimulated, LTC4 radioimmunoassay); assay type: cell-based; details: Zymosan 50 µg/mL
Protocol: The test method described below measures the ability of compounds to inhibit the production of Leukotriene C4 in mouse peritoneal macrophages.
Mice (female, CD-1, weighing 25 g) are euthanized by exposure to carbon dioxide. The peritoneal cavity is exposed by peeling back the abdominal skin. A 5 mL portion of media (M199 containing 1% fetal bovine serum, 100 units/mL of penicillin, 100 µg/mL of streptomycin, 20 units/mL of heparin and no glutamine) is injected into the exposed peritoneal cavity of each mouse. The lavage fluid is removed and pooled to yield approximately1 X 10^6 macrophages/mL. A 2 mL portion of lavage fluid is added to each well of a 24 well sterile multidish and the macrophages are allowed to adhere to the plate for 2 hours at 37°C in a 5% carbon dioxide atmosphere. The media is removed and each well is washed with 2 mL of phosphate buffered saline (PBS). A 1 mL portion of media, without heparin, but containing 5 µCi/mL of 3H-myoinositol is added to each well and the plates are incubated overnight at 37°C in a 5% carbon dioxide atmosphere. The media is removed and the cells are washed twice with 2 mL portions of PBS. A 1 mL portion of Puck's saline formulation A containing 1 mM calcium chloride, 1 mM magnesium chloride and 10 mM lithium chloride is added to each well. (The Puck's formulation is made first as a 10X solution which contains 4 g of potassium chloride, 80 g of sodium chloride and 10 g of glucose per liter. The Puck's saline formulation A is made using 10 mL of the 10X Puck's formulation, 0.47 mL of 7.5% sodium bicarbonate and 2 mL of 1M N-2-hydroxyethylpiperazine-N'-2-ethanesulfonic acid per 100 mL.)
Compounds are dissolved in dimethyl sulfoxide. Compounds are tested at concentrations of 10, 1 and 0.1 µM. Each concentration is tested in duplicate.
A 1 µL portion of compound solution or vehicle (DMSO) is added to each well and the plates are incubated for 15 minutes at 37°C in a 5% carbon dioxide atmosphere. Zymosan is then added to provide a final concentration of 50 µg/mL in each well and the plate is incubated for 1 to 2 hours at 37°C in a 5% carbon dioxide atmosphere.
Following incubation 200 µL portions of media are transferred to 12 X 75 mm tubes. The tubes are either assayed immediately or stored at -20°C until they can be assayed.
The media is assayed for the presence of Leukotriene C4 by radioimmunoassay which is performed according to the manufacturer's (Advanced Magnetics; Cambridge, MA) instructions.

[3] = test system: production of Leukotriene B4 (LTB4); assay: Dog ex vivo Leukotriene B4 inhibition (oral dosing, blood challenged with calcium ionophore); assay type: in vivo, beagle dogs; details: each entry one dog, negative = stimulation of LTB4 production; for % Inhibition 1 hour / % Inhibition 2 hour / % Inhibition 4 hour / % Inhibition 6 hour: 5 mg/Kg; for % Inhibition 4 hour: 4 hour post dose; for % Inhibition 6 hour: 6 hour post dose; for inhibition at 5 mg/kg: Canis lupus familiaris, po
Protocol: The test method described below measures the ability of a compound when administered orally to dogs to inhibit the production of Leukotriene B4 (LTB4) in their blood which is drawn and challenged at selected time points.
The test is conducted in beagle dogs (male and female; about 10 Kg). Prior to starting, the neck area of the beagle is shaved to allow easy access to the jugular vein. A 3-4 mL sample of blood is drawn from the jugular vein into a heparinized vacutainer. The dog is then dosed using a tube long enough to reach its stomach. The compound is dissolved in PEG 400 at a concentration such that the appropriate dose can be administered in approximately 5 mL. Immediately after the compound is given, a flush using 5 mL of vehicle is given to rinse the dosing tube. At selected time points following the dose, a 3-4 mL sample of blood is drawn.
The blood samples that have been drawn are challenged as soon as possible. A 0.5 mL portion of blood is aliquoted into 3 tubes (1 mL microtiter tubes). A 1 µL portion of 25 mM calcium ionophore in dimethyl sulfoxide is added to 2 of the tubes. A 1 µL portion of dimethyl sulfoxide is added to the third tube. The tubes are lightly mixed then placed in a 37°C water bath for 30 minutes. The tubes are centrifuged at 11,000 rpm for 3 minutes and the plasma supernatant is transferred to clean tubes. A 50 µL portion of this plasma is added to a I mL microtiter tube containing 200 µL of methanol. The tubes are placed in the freezer at -20°C for at least 1 hour then centrifuged at 2000 rpm for 10 minutes. A 10 µL portion of the methanol supematant is dried under vacuum at ambient temperature and then reconstituted in LTB4 buffer. The amount of LTB4 in the sample is determined by radioimmunoassay performed according to the manufacturer's (Advanced Magnetics; Cambridge, MA) instructions. Percent inhibition values are obtained by comparing the level of LTB4 in the post-dose sample to the level in the pre-dose sample according to the equation below. % Inhibition =((LTB4 predose) - (LTB4 postdose))/((LTB4 predose))X 100 [formula]
A number of the compounds that are useful in the practice of the method of the invention were tested. The results are shown in Table 15 below where each entry represents the results from one dog. A negative number indicates stimulation of LTB4 production. All compounds were tested at a dose of 5 mg/Kg.

[4] = 1 h, 1 hour post dose, read-out: % Inhibition 1 hour
[5] = 2 h, 2 hour post dose, read-out: % Inhibition 2 hour

SMILES: COc1ccccc1NC(=O)N(O)C(C)C [Compound 29, 1-hydroxy-3-(2-methoxyphenyl)-1-(1-methylethyl)urea]
%I ([1]; 50 mg/Kg): 61%

SMILES: CN(O)C(=O)Nc1ccc([S+](C)[O-])cc1 (centres unmarked) [Compound 64, 1-Hydroxy-1-methyl-3-[4-(methylsulfinyl)phenyl]urea]
%I ([1]; 50 mg/Kg): 88%

IC50 [2]: < 1000 nM
SMILES: CCC(CC)N(O)C(=O)Nc1ccc(Oc2ccccc2)cc1 [Compound 72, 1-Hydroxy-1-(1-ethylpropyl)-3-(4-phenoxyphenyl)urea]

SMILES: COc1ccc(OC)c(NC(=O)N(O)C(C)C)c1 [Compound 28, 3-(2,5-dimethoxyphenyl)-1-hydroxy-1-(1-methylethyl)urea]
%I ([1]; 50 mg/Kg): 29%

IC50 [2]: < 1000 nM
SMILES: CCC(CC)N(O)C(=O)Nc1ccc(OCc2ccccc2)cc1 [Compound 80, 1-Hydroxy-1-(1-ethylpropyl)-3-(4-benzyloxyphenyl)urea]

SMILES: CCCCc1ccc(NC(=O)N(O)C(C)C)cc1 [Compound 27, 3-(4-butylphenyl)-1-hydroxy-1-(1-methylethyl)urea]
%I ([1]; 10 mg/Kg): 23% | %I ([1]; 25 mg/Kg): 5% | %I ([1]; 50 mg/Kg): 53% and 75%

SMILES: CCC(CC)N(O)C(=O)Nc1ccccc1 [Compound 42, 1-(1-Ethylpropyl)-1-hydroxy-3-phenylurea]
% Inhibition 1 hour ([3]; 1 hour post dose): 98% and 100% | % Inhibition 2 hour ([3]; 2 hour post dose): 100% | % Inhibition 4 hour [3]: 97% and 100% and -91% | % Inhibition 6 hour [3]: 78% and 85% and 91% and -150% | inhibition at 5 mg/kg [3, 4]: 99% | inhibition at 5 mg/kg [3, 5]: 99% | %I ([1]; 50 mg/Kg): 4%

SMILES: CCOCCN(O)C(=O)Nc1ccccc1 [Compound 45, 1-(2-ethoxyethyl)-1-hydroxy-3-phenylurea]
%I ([1]; 50 mg/Kg): 6%

IC50 [2]: < 1000 nM
SMILES: CCC(CC)N(O)C(=O)Nc1cc(C(F)(F)F)cc(C(F)(F)F)c1 [Compound 73, 1-Hydroxy-1-(1-ethylpropyl)-3-(3,5-bis(trifluoromethyl)phenyl)urea]

IC50 [2]: < 1000 nM
SMILES: CCC(CC)N(O)C(=O)Nc1ccc(OCCCc2ccccc2)cc1 [Compound 82, 1-Hydroxy-1-(1-ethylpropyl)-3-[4-(3-phenylpropyloxy)phenyl]urea]

SMILES: CCCCC(CC)CN(O)C(=O)Nc1ccccc1 (centres unmarked) [Compound 47, 1-(2-ethylhexyl)-1-hydroxy-3-phenylurea]
%I ([1]; 50 mg/Kg): 16%

SMILES: CCC(CC)N(O)C(=O)Nc1ccc(Br)cc1 [Compound 41, 3-(4-Bromophenyl)-1-(1-ethylpropyl)-1-hydroxyurea]
%I ([1]; 50 mg/Kg): 14%

SMILES: CC(C)N(O)C(=O)Nc1cccc([S+](C)[O-])c1 (centres unmarked) [Compound 61, 1-Hydroxy-1-(1-methylethyl)-3-[3-(methylsulfinyl)phenyl]urea]
% Inhibition 2 hour ([3]; 2 hour post dose): 99% | % Inhibition 4 hour [3]: 29% and -2% | % Inhibition 6 hour [3]: -32% and 22% | inhibition at 5 mg/kg [3, 4]: 100% | inhibition at 5 mg/kg [3, 5]: 100%

IC50 [2]: < 1000 nM
SMILES: CCC(CC)N(O)C(=O)Nc1ccc(OCC2CCCCC2)cc1 [Compound 81, 1-Hydroxy-1-(1-ethylpropyl)-3-[4-(cyclohexylmethoxy)phenyl]urea]

IC50 [2]: < 1000 nM
SMILES: CCC(CC)N(O)C(=O)Nc1ccc(C(=O)c2ccccc2)cc1 [Compound 79, 1-Hydroxy-1-(1-ethylpropyl)-3-(4-benzoylphenyl)urea]

IC50 [2]: < 1000 nM
SMILES: CCCC(C)N(O)C(=O)Nc1ccccc1 (centres unmarked) [Compound 68, 1-Hydroxy-1-(1-methylbutyl)-3-phenylurea]

SMILES: CC(C)(C)CCN(O)C(=O)Nc1ccccc1 [Compound 48, 1-(3,3-dimethylbutyl)-1-hydroxy-3-phenylurea]
%I ([1]; 50 mg/Kg): 2%

SMILES: CCCCCN(O)C(=O)Nc1ccc(CCCC)cc1 [Compound 57, 3-(4-Butylphenyl)-1-hydroxy-1-pentylurea]
%I ([1]; 50 mg/Kg): 35%

SMILES: CN(O)C(=O)Nc1ccc(S(C)(=O)=O)cc1 [Compound 65, 1-Hydroxy-1-methyl-3-[4-(methylsulfonyl)phenyl]urea]
%I ([1]; 50 mg/Kg): 93%

SMILES: CCCCc1ccc(NC(=O)N(C)O)cc1 [Compound 12, 3-(4-butylphenyl)-1-hydroxy-1-methylurea]
%I ([1]; 50 mg/Kg): 42%

SMILES: COc1cc(NC(=O)N(O)C(C)C)cc(OC)c1OC [Compound 66, 1-Hydroxy-1-(1-methylethyl)-3-(3,4,5-trimethoxyphenyl)urea]
%I ([1]; 50 mg/Kg): 61%

IC50 [2]: < 1000 nM
SMILES: CN(O)C(=O)Nc1ccc(Oc2ccccc2)cc1 [Compound 14, 1-hydroxy-1-methyl-3-(4-phenoxyphenyl)urea]

SMILES: CC(C)N(O)C(=O)Nc1cccc(S(C)(=O)=O)c1 [Compound 60, 1-Hydroxy-1-(1-methylethyl)-3-[3-(methylsulfonyl)phenyl]urea]
% Inhibition 1 hour ([3]; 1 hour post dose): 97% | % Inhibition 2 hour ([3]; 2 hour post dose): 52% | % Inhibition 4 hour [3]: -79% and 49% | % Inhibition 6 hour [3]: -95% and 76% | inhibition at 5 mg/kg [3, 4]: 100%

SMILES: O=C(Nc1ccccc1)N(O)C1CCCC1 [Compound 46, 1-cyclopentyl-1-hydroxy-3-phenylurea]
% Inhibition 1 hour ([3]; 1 hour post dose): 77% | % Inhibition 2 hour ([3]; 2 hour post dose): 58% | % Inhibition 4 hour [3]: 11% and 2% | % Inhibition 6 hour [3]: -23% and 46% | inhibition at 5 mg/kg [3, 4]: 80% | inhibition at 5 mg/kg [3, 5]: 64% | %I ([1]; 50 mg/Kg): 17%

IC50 [2]: < 1000 nM
SMILES: CCC(CC)N(O)C(=O)Nc1ccc(-c2ccccc2)cc1 [Compound 83, 1-Hydroxy-1-(1-ethylpropyl)-3-(biphenyl-4-yl)urea]

From patent publication EP0777471B1, “INHIBITION OF LEUKOTRIENE BIOSYNTHESIS WITH UREA DERIVATIVES” (MINNESOTA MINING AND MANUFACTURING COMPANY, priority 1994, dated 1996)
